In US20130053435A1, “Methods of Treating Alcohol Intoxication, Alcohol Use Disorders and Alcohol Abuse Which Comprises the Administration of Dihydromyricetin” (priority 2011, published 2013):
Where “and” joins values, the source holds several entries; their conditions need not be identical. Equal entries are not always repeated. Where two headings read alike, the source gives them in different places.

How the values were obtained:
Assay in all cases: Whole-cell patch-clamp, cultured hippocampal neurons, acute drug application
Assay type in all cases: cell-based, rat
GABAARs [1] = tested on: T1, GABAARs; conditions: DHM 0.3 and 1 μM co-applied with GABA (b110 prints 1 M)
T1 construct: other: in the presence of 60 mM EtOH, rat hippocampal; shift of the GABA concentration-response curve
Description: (§1) Hippocampal neurons from embryonic day 18 rats were prepared by papain dissociation (Worthington Biochemical, Lakewood, N.J.) and cultured in neurobasal medium and B27 supplement (Invitrogen). Cultures were kept at 37° C. in a 5% CO2 humidified incubator as described previously. See Shen, Y., et al. (2011) Mol Pharmacol 79:432-442.
(§2) Hippocampal neurons from embryonic day 18 SD rats were prepared by papain dissociation (Worthington Biochemical, Lakewood, N.J.) and cultured in neurobasal medium (Invitrogen) and B27 supplement as previously reported. See Stowell J N and Craig A M (1999) Neuron 22(3):525-536. Briefly, embryos were removed from maternal rats anesthetized with isoflurane and euthanized by decapitation. Hippocampus were dissected and placed in Ca^2+- and Mg^2+-free HEPES-buffered Hank's buffered salt solution (pH 7.45). Tissues were dissociated by papain digestion followed by trituration through a Pasteur pipette and papain inhibitor treatment. Cells were pelleted and resuspended in neurobasal medium containing 2% B27 serum-free supplement, 100 U/ml penicillin, 100 μg/ml streptomycin, 0.5 mM glutamine (all from Invitrogen), and 10 μM glutamate (Sigma).
(§3) Dissociated neurons were then plated at a density of 0.3×10^5 cells/cm^2 onto 12 mm round coverslips in 24-well plates (for patch-clamp recording) and/or at a density of 0.5×10^5 cells/cm^2 in 6-well plates (for Western blot and biotinylation assays) coated with poly-D-lysine (Sigma, 50 μg/ml). Cultures were kept at 37° C. in a 5% CO2 humidified incubator. Thereafter, one third to half of the medium was replaced twice a week with neurobasal culture medium containing 2% B27 supplement, and 0.5 mM glutamine.
(§4) Control neurons were treated with corresponding vehicle as same procedure as EtOH-treated neurons. The concentration of 60 mM EtOH was selected in view of prior experiments. See Liang J et al (2007). Specifically, the concentration of 60 mM EtOH used to treat cultured neurons was chosen to match blood levels measured in adult rats after intoxication with gavage of 5 g/kg, which produced about 60 mM blood peak plasma [EtOH] lasting for about 2 to 3 hr and induced significant plasticity in GABAARs and tolerance.
(§5) Then, immediately before electrophysiological recording, cells grown on coverslips were transferred to a perfusion chamber (Warner Instruments) and visualized with an inverted microscope (TE200, Nikon). Whole-cell patch-clamp recordings were obtained from cultured neurons under voltage-clamp mode at room temperature (22-25° C.), at a holding potential of −70 mV. Cells were perfused with an extracellular solution (137 mM NaCl, 5 mM KCl, 2 mM CaCl2, 1 mM MgCl2, 20 mM glucose and 10 mM HEPES (310-320 Osm, pH adjusted to 7.40 with NaOH)). Glass pipettes were filled with the same internal solution as that in slice recordings, with an input resistance of 4-7 MΩ. GABAAR-mediated mIPSCs were recorded using the same pharmacological method as mentioned above. […] Electrical signals were amplified using a Multiclamp 200 B amplifier (Molecular Devices, USA). After establishing the whole-cell configuration, at least 10 min were allowed to elapse before the application of drug to allow the membrane patch to stabilize and exchange of ions between the recording electrode and the cytosol to occur. Data were acquired with pClamp software (Version 10.0, Molecular Devices, USA), digitized at 20 kHz (Digidata 1440A, Molecular Devices), and analyzed using the Clampfit software (Version 10.0, Molecular Devices) and the Mini Analysis Program (versions 6.0.7, Synaptosoft, Decatur, Ga.) using methods known in the art. See Hamann M, et al. (2002) Neuron 33(4):625-633; Stell B M and Mody I (2002) J Neurosci 22(10): RC223; and Liang (2007).

GABAARs [2] = tested on: T2, GABAARs
T2 construct: DHM-enhanced mIPSCs; other: control (vehicle) cultured neurons, DIV14; other: cultured neurons with EtOH exposure/withdrawal (60 mM, 30 min, 24 hr); EtOH-potentiated mIPSCs; effect on post-synaptic currents (mIPSCs); other: comparative experiments, rat hippocampal slices
Description: as §1, §2, §3, §4, §5

GABAARs [3] = tested on: T3, GABAARs
T3 construct: DHM-enhanced Itonic; EC50 on GABAAR-mediated Itonic; other: control (vehicle) cultured neurons, DIV14; other: cultured neurons with EtOH exposure/withdrawal (60 mM, 30 min, 24 hr); EtOH-potentiated Itonic; GABAAR-mediated Ito
Description: as §1, §2, §3, §4, §5

EC50 (GABAARs [2]; control (vehicle) cultured neurons, DIV14, read-out: EC50 on mIPSCs): ~200 nM and ~300 nM
EC50 (GABAARs [3]; control (vehicle) cultured neurons, DIV14, read-out: EC50 on GABAAR-mediated Itonic): ~200 nM
EC50 (GABAARs [3]; cultured neurons with EtOH exposure/withdrawal (60 mM, 30 min, 24 hr), read-out: EC50 on Itonic): ~200 nM and ~300 nM
SMILES: O=C1c2c(O)cc(O)cc2O[C@H](c2cc(O)c(O)c(O)c2)[C@H]1O [DHM, (2R,3R)-3,5,7-trihydroxy-2-(3,4,5-trihydroxyphenyl)-2,3-dihydrochromen-4-one]
shift of the GABA concentration-response curve (GABAARs [1]): left shift
mIPSCs (area) (GABAARs [2]; 1 μM DHM, cultured hippocampal neurons): 181.8±9.2 % of control and 128.2±8.3 % of control
Itonic (GABAARs [3]; 0.3 μM DHM, cultured hippocampal neurons): 21.0±2.3 pA
Itonic (GABAARs [3]; 1 μM DHM, cultured hippocampal neurons DIV13-14): 194.9±13.6 % of control
